Results taken from patent US20100279976A1, “USE OF ARTEMISININ AND ITS DERIVATIVES IN CANCER THERAPY” (SHANGHAI INSTITUTES FOR BIOLOGICAL SCIENCES, CAS, priority 2009, published 2010).

Experiments:
[1] = test system: Huh-7 hepatoma cells (p53 mutant); assay: MTT cell viability assay, Huh-7; assay type: cell-based; conditions: Homo sapiens, Huh-7 (p53 mutant), 48 h
Procedure: (§1) The effects of ART derivatives on the viability of the aforementioned cells may be determined using the MTT assay. Briefly, 2,000 cells per well were plated in triplicate in 96-well plates. After a 24-h incubation, the cells may be treated with varying concentrations of ART derivatives (0, 1, 5, 10, 25, 50, and 100 μmol/L) for 48 h. The MTT assay may be performed according to the manufacture's instruction and the resultant formazan crystals may be dissolved in DMSO (100 μL). The absorbance may be then recorded at 540 nm. The effects of ART derivatives on cell viability may be assessed by comparing the percent cell viability of the treated cells with the vehicle (DMSO)-treated control cells, which may be arbitrarily assigned at 100% viability. The experiment may be repeated thrice under the same conditions.

[2] = test system: A2780 ovarian carcinoma cells; assay: MTT cell viability assay, A2780; assay type: cell-based; conditions: Homo sapiens, A2780, 48 hrs
Description: (§2) Human ovarian IOSE144 (immortalized non-tumorigenic human ovarian surface epithelial cells) and ovarian carcinoma (A2780 and OVCAR-3) cells that may be obtained from the American Type Culture Collection (ATCC, Manassas, Va.) are gifts from Dr. Jing Fang (Institute for Nutritional Sciences, Shanghai, China). All cells may be cultured according to the ATCC instructions. The compounds (ARS, ART, ARM and DHA) may be dissolved in DMSO (<0.1%, final concentration).
as §1

[3] = test system: OVCAR-3 ovarian carcinoma cells; assay: MTT cell viability assay, OVCAR-3; assay type: cell-based; conditions: Homo sapiens, OVCAR-3, 48 hrs
Description: as §2, §1

[4] = test system: four hepatoma cell lines (HepG2, Hep3B, Huh-7, BEL-7404); assay: MTT assay, mean over four hepatoma cell lines; assay type: cell-based; conditions: Homo sapiens, mean of HepG2, Hep3B, read-out: overall mean IC50 in the four hepatoma cell lines
Procedure: as §1

[5] = test system: BEL-7404 hepatoma cells (p53 mutant); assay: MTT cell viability assay, BEL-7404; assay type: cell-based; conditions: Homo sapiens, BEL-7404 (p53 mutant), 48 h
Procedure: as §1

[6] = test system: HepG2 hepatoma cells (p53 wild-type); assay: MTT cell viability assay, HepG2; assay type: cell-based; conditions: Homo sapiens, 48 h
Procedure: as §1

[7] = test system: IOSE144 immortalized non-tumorigenic ovarian surface epithelial cells; assay: MTT cell viability assay, IOSE144; assay type: cell-based; conditions: Homo sapiens, IOSE-144, IOSE144, 48 hrs
Description: as §2, §1

[8] = test system: Hep3B hepatoma cells (p53 null); assay: MTT cell viability assay, Hep3B; assay type: cell-based; conditions: Homo sapiens, 48 h
Procedure: as §1

[9] = test system: 7702 normal human liver cells; assay: MTT cell viability assay, normal liver cells; assay type: cell-based; conditions: Homo sapiens, 7702 cells, 48 h; for IC20: read-out: IC20 (concentration that reduces growth by 20%)
Procedure: as §1

HCC = conditions: gemcitabine monotherapy, HCC patients; cited from earlier work
HepG2 xenograft tumors = assay: HepG2 xenograft model in nude mice; assay type: in vivo; conditions: HepG2 xenograft, gemcitabine alone 80 mg/kg i.p. days 7, 11, 15
Procedure: Female athymic nude mice (nu/nu; 4-6 wk of age) may be obtained from Shanghai Slac Laboratory Animal Co. Ltd. All animals may be fed with commercial diet and water ad libitum. The human HCC xenograft models in mice may be as follows. Briefly, HepG2 and Hep3B cells may be re-suspended in serum-free DMEM with Matrigel basement membrane matrix at a 5:1 ratio. The cell suspension may then be injected (7×10^6 cells; total volume, 0.2 mL) into the left inguinal area of the BALB/c nude mice. The animals may be monitored for activity and physical condition everyday, and the determination of body weight and measurement of tumor mass may be done every 3 d. Tumor mass may be determined by caliper measurement in two perpendicular diameters of the implant and calculated using the formula ½a×b^2, where a stands for the long diameter and b is the short diameter. The animal use and care protocol is approved by the Institutional Review Board of the Institute for Nutritional Sciences, Chinese Academy of Sciences.
Nude mice bearing HepG2 and Hep3B xenografts, randomly divided into various treatment and control groups (five mice per group), may be treated orally with either ART or DHA suspended in 5% sesame oil+95% saline, at a dose of 50 or 100 mg/kg/d, or a combination of ART or DHA with gemcitabine or with saline (as controls). In the mice receiving combination therapy, 80 mg/kg gemcitabine, representing one fifth of the reported most tolerated dose in mice, may be administered i.p. on days 7, 11, and 15 to avoid possible side effects and to illustrate potential chemo-sensitization effects in this combination regimen.

OVCAR-3 xenograft tumors = assay: OVCAR-3 xenograft model in nude mice; assay type: in vivo; conditions: CBP only, single dose 120 mg/kg on day 0
Procedure: (§3) Four to six week old female athymic nude mice (BALB/c, nu/nu) may be purchased from Shanghai Experimental Animal Center (Shanghai, China). Animal studies are approved by the Institute for Nutritional Sciences. The tumor xenograft model may be established as follows. Briefly, A2780 and OVCAR-3 cells may be harvested and re-suspended in serum-free RPMI 1640 medium containing 20% (v/v) Matrigel (BD Biosciences, Bedford, Mass., USA). Aliquots of cells (˜5×10^6 cells/0.2 ml) may be injected subcutaneously into the left inguinal area of the mice. The tumor growth and body weight of the mice may be monitored every other day. Tumor mass may be determined. Mice bearing palpable tumors (˜70 mg) may be randomly divided into treatment and control groups n=5 mice/group). CBP may be dissolved in saline, and DHA may be dissolved in cremophor EL:ethanol:saline (5:5:90, v/v/v). DHA may be administered via i.p. injection at doses of 10 and 25 mg/kg/5 days/week for 3 weeks) alone or combined with CBP (at a single dose of 120 mg/kg, once on day 0). The control group receives saline only. Mice may be killed on day 18. Tumors may be carefully excised, trimmed of extraneous fat or connective tissue, and homogenized in RIPA buffer (100 mg tumor tissue/1 ml RIPA) and prepared for immunoblotting analysis as described above.

OVCAR-3 cells = assay: Annexin V-FITC apoptosis assay, OVCAR-3; assay type: cell-based, human; conditions: OVCAR-3, 24 hrs; DHA 1 μM, CBP 500 μM, alone or combined
Procedure: ART- and DHA-induced apoptosis alone or in combination with gemcitabine in HepG2 and Hep3B cells or in combination with carboplatin in ovarian cancer cells may be determined by flow cytometry using the Annexin V-FITC Apoptosis Detection kit following the manufacturer's instructions. […] The cells may then be harvested, washed in PBS, and incubated with Annexin V and propidium iodide for staining in binding buffer at room temperature for 10 min in the dark. The stained cells may be analyzed using the FACSAria instrument.

A2780 xenograft tumors = assay type: in vivo
Procedure: as §3, with “Briefly, A2780 and OVCAR-3 cells may be harvested and re-suspended in serum-free RPMI 1640 medium containing 20% (v/v) Matrigel (BD Biosciences, Bedford, Mass., USA).” left out

## C[C@H]1[C@H](OC(=O)CCC(=O)O)O[C@@H]2O[C@@]3(C)CC[C@H]4[C@H](C)CC[C@@H]1[C@@]24OO3 [ARS, artesunate]
[1]
  IC20: 0.6 µM
  IC50: 9.22 µM
  IC80: 146 µM
[2]
  IC20: 7.68 µM
  IC50: > 500 µM
  IC80: > 500 µM
[3]
  IC20: 3.93 µM
  IC50: 343 µM
  IC80: > 500 µM
[4]
  IC50: 21 µM
[5]
  IC20: 1 µM
  IC50: 15 µM
  IC80: 215 µM
[6]
  IC20: 1.3 µM
  IC50: 20.5 µM
  IC80: 338 µM
[7]
  IC20: > 500 µM
  IC50: > 500 µM
  IC80: > 500 µM
[8]
  IC20: 1.5 µM
  IC50: 39.4 µM
  IC80: > 500 µM
[9]
  IC80: > 500 µM
  IC20: 7.3 µM
  IC50: > 500 µM

## Nc1ccn([C@@H]2O[C@H](CO)[C@@H](O)C2(F)F)c(=O)n1 [gemcitabine]
HCC
  median survival time: up to 34 weeks
HepG2 xenograft tumors
  tumor growth inhibition: 34.9%

## CO[C@H]1O[C@@H]2O[C@@]3(C)CC[C@H]4[C@H](C)CC[C@@H]([C@H]1C)[C@@]24OO3 [ARM, artemether]
[1]
  IC20: 1.2 µM
  IC50: 31.4 µM
  IC80: > 500 µM
[2]
  IC20: 2.08 µM
  IC50: 53.9 µM
  IC80: > 500 µM
[3]
  IC20: 2.08 µM
  IC50: 38.8 µM
  IC80: > 500 µM
[4]
  IC50: 42.3 µM
[5]
  IC20: 2.4 µM
  IC50: 31.8 µM
  IC80: > 500 µM
[6]
  IC20: 2.6 µM
  IC50: 54.8 µM
  IC80: > 500 µM
[7]
  IC20: 98 µM
  IC50: > 500 µM
  IC80: > 500 µM
[8]
  IC20: 2.4 µM
  IC50: 51.5 µM
  IC80: > 500 µM
[9]
  IC80: > 500 µM
  IC20: 7.9 µM
  IC50: 492 µM

## N.N.O=C([O-])C1(C(=O)[O-])CCC1.[Pt+2] [CBP, carboplatin]
OVCAR-3 xenograft tumors
  tumor growth inhibition: 46%
OVCAR-3 cells
  rate of apoptosis (control regarded as 100%): 528%
A2780 xenograft tumors; A2780 xenograft, CBP only, single dose 120 mg/kg on day 0
  tumor growth inhibition: 56%
A2780 xenograft tumors; mice bearing A2780 or OVCAR-3 xenografts
  host toxicity based on observation of body weight: slight weight loss
